Data as given in US20150119395A1, “NOVEL TRIAZOLE COMPOUNDS THAT MODULATE HSP90 ACTIVITY” (SYNTA PHARMACEUTICALS CORP., priority 2012, published 2015).

Tested on: Her2
Test: Degradation of Her2 in BT-474 cells, SDS-PAGE/immunoblot, Method 1
Assay type: cell-based, human
Conditions: 0.5 μM, overnight in DMEM medium
Description: BT-474 cells were treated with 0.5 μM, 2 μM, or 5 μM of 17AAG (a positive control) or 0.5 μM, 2 μM, or 5 μM of a compound of the invention overnight in DMEM medium. After treatment, each cytoplasmic sample was prepared from 1×10^6 cells by incubation of cell lysis buffer (#9803, Cell Signaling Technology) on ice for 10 minutes. The resulting supernatant used as the cytosol fractions was dissolved with sample buffer for SDS-PAGE and run on a SDS-PAGE gel, blotted onto a nitrocellulose membrane by using semi-dry transfer. Non-specific binding to nitrocellulose is blocked with 5% skim milk in TBS with 0.5% Tween at room temperature for 1 hour, then probed with anti-Her2/ErB2 mAb (rabbit IgG, #2242, Cell Signaling) and anti-Tubulin (T9026, Sigma) as housekeeping control protein. HRP-conjugated goat anti-rabbit IgG (H+L) and HRP-conjugated horse anti-mouse IgG (H+L) were used as secondary Ab (#7074, #7076, Cell Signaling) and LumiGLO reagent, 20× Peroxide (#7003, Cell Signaling) is used for visualization.
BT-474 cells were treated with 0.5 μM, 2 μM, or 5 μM of 17AAG (a positive control) or 0.5 μM, 2 μM, or 5 μM of a compound of the invention overnight in DMEM medium. After treatment, each cytoplasmic sample was prepared from 1×10^6 cells by incubation of cell lysis buffer (#9803, Cell Signaling Technology) on ice for 10 minutes. […]

For `C=CCNC1=C2C[C@@H](C)C[C@H](OC)[C@H](O)[C@@H](C)/C=C(\C)[C@H](OC(N)=O)[C@@H](OC)/C=C\C=C(/C)C(=O)NC(=CC1=O)C2=O` [Compound 17AAG, 17-allylamino-17-demethoxygeldanamycin], the “Degradation of Her2 (Western blot)” value was “partial degradation”.
